Results taken from ChEMBL document CHEMBL4610054, “Design, synthesis, and structure-activity relationship studies of novel triazole agents with strong antifungal activity against Aspergillus fumigatus” (2020).
Values after ≈ are worked out from the molar mass of the structure shown.

What was measured:
Assay type in all cases: functional
[1] = tested on: Candida albicans; assay: Antifungal activity against Candida albicans SC5314 by NCCLS protocol based broth microdilution assay
[2] = tested on: Cryptococcus neoformans; assay: Antifungal activity against Cryptococcus neoformans 32605 by NCCLS protocol based broth microdilution assay
[3] = tested on: Aspergillus fumigatus; assay: Antifungal activity against Aspergillus fumigatus 7544 by NCCLS protocol based broth microdilution assay
[4] = tested on: Nannizzia gypsea; assay: Antifungal activity against Microsporum gypseum CMCC by NCCLS protocol based broth microdilution assay
[5] = tested on: Candida parapsilosis; assay: Antifungal activity against Candida parapsilosis 22019 by NCCLS protocol based broth microdilution assay; settings: Lodderomyces parapsilosis
[6] = tested on: Candida albicans; assay: Antifungal activity against Candida albicans Y0109 by NCCLS protocol based broth microdilution assay
[7] = tested on: Nakaseomyces glabratus; assay: Antifungal activity against Candida glabrata 537 by NCCLS protocol based broth microdilution assay
[8] = tested on: Candida albicans; assay: Antifungal activity against fluconazole-resistant Candida albicans isolate 100 by NCCLS protocol based broth microdilution method
[9] = tested on: Candida albicans; assay: Antifungal activity against fluconazole-resistant Candida albicans isolate 103 by NCCLS protocol based broth microdilution method

| Structure (SMILES) | MIC [1] | MIC [2] | MIC [3] | MIC [4] | MIC [5] | MIC [6] | MIC [7] | MIC [8] | MIC [9] |
| --- | --- | --- | --- | --- | --- | --- | --- | --- | --- |
| C[C@@H](n1nnc2ccc(Br)cc2c1=O)[C@](O)(Cn1cncn1)c1ccc(F)cc1F | 0.125 µg/mL (≈ 0.262 µM) | 2 µg/mL (≈ 4.19 µM) | > 64 µg/mL | – | – | – | – | – | – |
| C[C@@H](n1nnc2cc(C(F)(F)F)ccc2c1=O)[C@](O)(Cn1cncn1)c1ccc(F)cc1F | 0.0156 µg/mL (≈ 0.0334 µM) | 0.125 µg/mL (≈ 0.268 µM) | 4 µg/mL (≈ 8.58 µM) | 2 µg/mL (≈ 4.29 µM) | 0.0313 µg/mL (≈ 0.0671 µM) | 0.0156 µg/mL (≈ 0.0334 µM) | 0.0313 µg/mL (≈ 0.0671 µM) | – | – |
| C[C@@H](n1nnc2cc(F)ccc2c1=O)[C@](O)(Cn1cncn1)c1ccc(F)cc1F | 0.0156 µg/mL (≈ 0.0375 µM) | 0.25 µg/mL (≈ 0.6 µM) | 1 µg/mL (≈ 2.4 µM) | 2 µg/mL (≈ 4.8 µM) | 0.0313 µg/mL (≈ 0.0752 µM) | 0.0156 µg/mL (≈ 0.0375 µM) | 0.0313 µg/mL (≈ 0.0752 µM) | 32 µg/mL (≈ 76.9 µM) | 64 µg/mL (≈ 154 µM) |
| Cc1ccc2c(=O)n([C@H](C)[C@](O)(Cn3cncn3)c3ccc(F)cc3F)nnc2c1 | 0.0156 µg/mL (≈ 0.0378 µM) | 0.125 µg/mL (≈ 0.303 µM) | 2 µg/mL (≈ 4.85 µM) | 2 µg/mL (≈ 4.85 µM) | 0.0313 µg/mL (≈ 0.0759 µM) | 0.0156 µg/mL (≈ 0.0378 µM) | 0.0156 µg/mL (≈ 0.0378 µM) | – | – |
| C[C@@H](n1nnc2c(F)cccc2c1=O)[C@](O)(Cn1cncn1)c1ccc(F)cc1F | 0.5 µg/mL (≈ 1.2 µM) | 0.0313 µg/mL (≈ 0.0752 µM) | > 64 µg/mL | – | – | – | – | – | – |
| C[C@@H](n1nnc2cc(I)ccc2c1=O)[C@](O)(Cn1cncn1)c1ccc(F)cc1F | 0.0156 µg/mL (≈ 0.0298 µM) | 0.125 µg/mL (≈ 0.238 µM) | 1 µg/mL (≈ 1.91 µM) | 1 µg/mL (≈ 1.91 µM) | 0.0625 µg/mL (≈ 0.119 µM) | 0.0156 µg/mL (≈ 0.0298 µM) | 0.0313 µg/mL (≈ 0.0597 µM) | > 64 µg/mL | > 64 µg/mL |
| C[C@@H](n1nnc2cc([N+](=O)[O-])ccc2c1=O)[C@](O)(Cn1cncn1)c1ccc(F)cc1F | 0.0156 µg/mL (≈ 0.0352 µM) | 0.25 µg/mL (≈ 0.564 µM) | 4 µg/mL (≈ 9.02 µM) | 4 µg/mL (≈ 9.02 µM) | 0.0313 µg/mL (≈ 0.0706 µM) | 0.0156 µg/mL (≈ 0.0352 µM) | 0.0313 µg/mL (≈ 0.0706 µM) | – | – |
| C[C@@H](n1nnc2cc(F)c(F)cc2c1=O)[C@](O)(Cn1cncn1)c1ccc(F)cc1F | 0.0313 µg/mL (≈ 0.0721 µM) | 0.5 µg/mL (≈ 1.15 µM) | 2 µg/mL (≈ 4.6 µM) | 1 µg/mL (≈ 2.3 µM) | 0.0313 µg/mL (≈ 0.0721 µM) | 0.0156 µg/mL (≈ 0.0359 µM) | 0.0625 µg/mL (≈ 0.144 µM) | – | – |
| C[C@@H](n1nnc2ccc(Cl)cc2c1=O)[C@](O)(Cn1cncn1)c1ccc(F)cc1F | 0.0313 µg/mL (≈ 0.0723 µM) | 0.5 µg/mL (≈ 1.16 µM) | > 64 µg/mL | – | – | – | – | – | – |
| C[C@@H](n1nnc2ccc(I)cc2c1=O)[C@](O)(Cn1cncn1)c1ccc(F)cc1F | 0.125 µg/mL (≈ 0.238 µM) | 0.5 µg/mL (≈ 0.954 µM) | 32 µg/mL (≈ 61 µM) | – | – | – | – | – | – |
| C[C@@H](n1nnc2cc(Cl)ccc2c1=O)[C@](O)(Cn1cncn1)c1ccc(F)cc1F | 0.0156 µg/mL (≈ 0.036 µM) | 0.0313 µg/mL (≈ 0.0723 µM) | 0.25 µg/mL (≈ 0.578 µM) | 0.25 µg/mL (≈ 0.578 µM) | 0.0156 µg/mL (≈ 0.036 µM) | 0.0156 µg/mL (≈ 0.036 µM) | 0.0156 µg/mL (≈ 0.036 µM) | 8 µg/mL (≈ 18.5 µM) | 2 µg/mL (≈ 4.62 µM) |
| C[C@@H](n1nnc2c(ccc3ccccc32)c1=O)[C@](O)(Cn1cncn1)c1ccc(F)cc1F | 0.125 µg/mL (≈ 0.279 µM) | 0.5 µg/mL (≈ 1.11 µM) | > 64 µg/mL | – | – | – | – | – | – |
| C[C@@H](n1nnc2cccc(Br)c2c1=O)[C@](O)(Cn1cncn1)c1ccc(F)cc1F | 0.25 µg/mL (≈ 0.524 µM) | 0.0625 µg/mL (≈ 0.131 µM) | 32 µg/mL (≈ 67 µM) | – | – | – | – | – | – |
| C[C@@H](n1nnc2cccc(F)c2c1=O)[C@](O)(Cn1cncn1)c1ccc(F)cc1F | 0.5 µg/mL (≈ 1.2 µM) | 0.0625 µg/mL (≈ 0.15 µM) | > 64 µg/mL | – | – | – | – | – | – |
| C[C@@H](n1nnc2cc(Br)ccc2c1=O)[C@](O)(Cn1cncn1)c1ccc(F)cc1F | 0.0156 µg/mL (≈ 0.0327 µM) | 0.0625 µg/mL (≈ 0.131 µM) | 0.5 µg/mL (≈ 1.05 µM) | 0.5 µg/mL (≈ 1.05 µM) | 0.0313 µg/mL (≈ 0.0656 µM) | 0.0156 µg/mL (≈ 0.0327 µM) | 0.0156 µg/mL (≈ 0.0327 µM) | 16 µg/mL (≈ 33.5 µM) | 32 µg/mL (≈ 67 µM) |
| C[C@@H](n1nnc2ccccc2c1=O)[C@](O)(Cn1cncn1)c1ccc(F)cc1F | 0.0313 µg/mL (≈ 0.0786 µM) | 0.25 µg/mL (≈ 0.628 µM) | 4 µg/mL (≈ 10 µM) | 2 µg/mL (≈ 5.02 µM) | 0.0313 µg/mL (≈ 0.0786 µM) | 0.0156 µg/mL (≈ 0.0392 µM) | 0.0625 µg/mL (≈ 0.157 µM) | – | – |
| COc1ccc2c(=O)n([C@H](C)[C@](O)(Cn3cncn3)c3ccc(F)cc3F)nnc2c1 | 0.0156 µg/mL (≈ 0.0364 µM) | 0.125 µg/mL (≈ 0.292 µM) | 2 µg/mL (≈ 4.67 µM) | 2 µg/mL (≈ 4.67 µM) | 0.0313 µg/mL (≈ 0.0731 µM) | 0.0156 µg/mL (≈ 0.0364 µM) | 0.0156 µg/mL (≈ 0.0364 µM) | – | – |
| C[C@@H](n1nnc2ccc(F)cc2c1=O)[C@](O)(Cn1cncn1)c1ccc(F)cc1F | 0.0625 µg/mL (≈ 0.15 µM) | 0.25 µg/mL (≈ 0.6 µM) | 16 µg/mL (≈ 38.4 µM) | – | – | – | – | – | – |
| C[C@@H](n1nnc2c(Cl)cccc2c1=O)[C@](O)(Cn1cncn1)c1ccc(F)cc1F | 0.25 µg/mL (≈ 0.578 µM) | 0.25 µg/mL (≈ 0.578 µM) | > 64 µg/mL | – | – | – | – | – | – |
| C[C@@H](n1nnc2c(Br)cccc2c1=O)[C@](O)(Cn1cncn1)c1ccc(F)cc1F | 0.5 µg/mL (≈ 1.05 µM) | 0.25 µg/mL (≈ 0.524 µM) | > 64 µg/mL | – | – | – | – | – | – |
| C[C@@H](n1nnc2cccc(Cl)c2c1=O)[C@](O)(Cn1cncn1)c1ccc(F)cc1F | 0.25 µg/mL (≈ 0.578 µM) | 0.0625 µg/mL (≈ 0.144 µM) | 32 µg/mL (≈ 73.9 µM) | – | – | – | – | – | – |
| C[C@@H](n1nnc2ccc([N+](=O)[O-])cc2c1=O)[C@](O)(Cn1cncn1)c1ccc(F)cc1F | 0.5 µg/mL (≈ 1.13 µM) | 2 µg/mL (≈ 4.51 µM) | > 64 µg/mL | – | – | – | – | – | – |
| C[C@@H](n1nnc2cc(Cl)c(F)cc2c1=O)[C@](O)(Cn1cncn1)c1ccc(F)cc1F | 0.125 µg/mL (≈ 0.277 µM) | 0.25 µg/mL (≈ 0.555 µM) | 8 µg/mL (≈ 17.7 µM) | – | – | – | – | – | – |
| COc1ccc2nnn([C@H](C)[C@](O)(Cn3cncn3)c3ccc(F)cc3F)c(=O)c2c1 | 0.0625 µg/mL (≈ 0.146 µM) | 1 µg/mL (≈ 2.33 µM) | 32 µg/mL (≈ 74.7 µM) | – | – | – | – | – | – |
| Cc1ccc2nnn([C@H](C)[C@](O)(Cn3cncn3)c3ccc(F)cc3F)c(=O)c2c1 | 0.0625 µg/mL (≈ 0.152 µM) | 0.25 µg/mL (≈ 0.606 µM) | 16 µg/mL (≈ 38.8 µM) | – | – | – | – | – | – |
| C[C@@H](n1nnc2ccc(C(F)(F)F)cc2c1=O)[C@](O)(Cn1cncn1)c1ccc(F)cc1F | 0.25 µg/mL (≈ 0.536 µM) | 2 µg/mL (≈ 4.29 µM) | > 64 µg/mL | – | – | – | – | – | – |
| C[C@@H](n1cnc2cc(Cl)ccc2c1=O)[C@](O)(Cn1cncn1)c1ccc(F)cc1F [ALBACONAZOLE] | 0.0313 µg/mL (≈ 0.0725 µM) | 0.0313 µg/mL (≈ 0.0725 µM) | 0.25 µg/mL (≈ 0.579 µM) | 1 µg/mL (≈ 2.32 µM) | 0.0156 µg/mL (≈ 0.0361 µM) | 0.0156 µg/mL (≈ 0.0361 µM) | 0.0625 µg/mL (≈ 0.145 µM) | 8 µg/mL (≈ 18.5 µM) | 4 µg/mL (≈ 9.26 µM) |
| OC(Cn1cncn1)(Cn1cncn1)c1ccc(F)cc1F [FLUCONAZOLE] | 0.5 µg/mL (≈ 1.63 µM) | 0.5 µg/mL (≈ 1.63 µM) | > 64 µg/mL | 32 µg/mL (≈ 104 µM) | 1 µg/mL (≈ 3.27 µM) | 0.5 µg/mL (≈ 1.63 µM) | 2 µg/mL (≈ 6.53 µM) | > 64 µg/mL | > 64 µg/mL |
| C[C@@H](c1ncncc1F)[C@](O)(Cn1cncn1)c1ccc(F)cc1F [VORICONAZOLE] | 0.0313 µg/mL (≈ 0.0896 µM) | 0.0625 µg/mL (≈ 0.179 µM) | 0.25 µg/mL (≈ 0.716 µM) | 0.25 µg/mL (≈ 0.716 µM) | 0.0156 µg/mL (≈ 0.0447 µM) | 0.0156 µg/mL (≈ 0.0447 µM) | 0.0156 µg/mL (≈ 0.0447 µM) | > 64 µg/mL | > 64 µg/mL |
